EP0000644A2, “Lower cycloalkyl substituted-benzene derivatives, the preparation thereof and their pharmaceutical compositions” (FUJISAWA PHARMACEUTICAL CO., LTD., priority 1977, dated 1979)
In brackets after ≈: the same amount, converted by molar mass. Structures can show the parent of a compound that is named as a salt. Where two headings read alike, the source gives them in different places.

Experiments:
strip of stomach fundus = test: Contraction of isolated stomach fundus strip induced by arachidonic acid; type: cell-based, Sprague-Dawley rats; settings: Rattus norvegicus, 0.25 h
Description: The stomach was removed from Sprague-Dawley rats, weighing about 180 g., after the animals were fasted overnight. A strip of stomach fundus was suspended under initial tension of 0.6 g. in a 10 ml. organ bath containing Tyrode solution. Arachidonic acid (1.0 x 10^-5 g/ml.) was employed as the spasmogen. Several doses of the test compound were added to the individnal bath fluid 15 minutes before the addition of arachidonic acid. The value of contraction induced by arachidonic acid was measured and plotted as a dose-activity curve. The ED50 value of each test compound was obtained by interpolation from the dose-activity curve.

erythema = test: Ultra-violet erythema test, oral administration; type: in vivo, Hartley rats; settings: ten animals per group; oral suspension, half one hour before and half just after ultra-violet radiation; erythema scored two hours later; effective when total of 3 points below 1.5; read-out: Score
Description: Ten male 5 week old Hartley rats, each weighing about 350 g., were used per group. The backs of each animal were depilated 24 hours before the test. An adhesive tape with 3 small holes of 9 mm. diameter was placed on the depilated skin and then the animal was exposed to ultra-violet radiation from an ultra-violet lamp (500 W, manufactured by Engelhard Hanovia Inc.) at a distance of 13 cm. for 80 seconds. Two hours later, the degree of erythema was estimated on the basis of the following scores: • 1.0 : eryhthema with clear border, • 0.5 : erythema with unclear border, • 0.0 : scarcely any erythema.
The valuation was determined as follows:
Each dosage of the test compound was administered orally in a suspension form in 20 ml. of 0.5% aqueous methyl cellosolve aqueous solution. Half of the test sample was administered one hour before the radiation and the remaining half of the test solution was administered just after radiation.

[1] = arachidonic acid 1.0 x 10^-5 g/ml. as spasmogen, test compound added 15 minutes before, interpolated from dose-activity curve, read-out: ED50 (the source's name)

SMILES | IC50 (strip of stomach fundus; [1]) [µg/mL] | minimal effective dose (erythema) [mg/kg] | IC50 (strip of stomach fundus; read-out: ED50) [µg/mL]
COCC(C(=O)O)c1ccc(C2CCCCC2)c(Cl)c1 (centres unmarked) [4-(3), sodium 2-(3-chloro-4-cyclohexylphenyl)-3-methoxypropionatc] | 0.084 | 8 to 10 | –
COC(=O)C(COC(C)=O)c1ccc(C2CCCCC2)c(Cl)c1 (centres unmarked) [5-(3), methyl 3-acetoxy-2-(3-chloro-4-cyclohexylphenyl) propionate] | 0.12 (≈ 0.354 µM) | 8 to 10 | –
COCC(CO)c1ccc(C2CCCCC2)c(Cl)c1 (centres unmarked) [7-(2), 2-(3-chloro-4-cyclohexylphenyl)-3-methoxypropanol] | 0.5 (≈ 1.77 µM) | – | –
CCCOCC(C(=O)[O-])c1ccc(C2CCCCC2)cc1.[Na+] (centres unmarked) [12-(2), sodium 2-(4-cyclohexylphenyl)-3-propoxypropionate] | – | 8 to 10 | 2.6
CS(=O)(=O)NCC(CO)c1ccc(C2CCCCC2)cc1 (centres unmarked) [14-(3), 2-(4-cyclohexylphenyl)-3-mesylaminopropanol] | 22 (≈ 70.6 µM) | 8 to 10 | –
CC(=O)CC(C(=O)O)c1ccc(C2CCCCC2)cc1 (centres unmarked) [15-(2), 2-(4-cyclohexylphenyl)-3-acetylpropionic acid] | 3.2 (≈ 11.7 µM) | 8 to 10 | –
CC(=O)CC(CO)c1ccc(C2CCCCC2)cc1 (centres unmarked) [16-(3), 2-(4-cyclohexylphenyl)-3-acetylpropanol] | – | 8 to 10 | –
COCC(C(=O)O)c1ccc(C2CCCCC2)cc1 (centres unmarked) [17-(2), 2-(4 cyclohexylphenyl)-3-methoxypropionic acid] | 1.3 (≈ 4.96 µM) | 8 to 10 | –
CNCC(CO)c1ccc(C2CCCCC2)cc1 (centres unmarked) [21-(2), 2-(4-cyclohcxylphenyl)-3-mcthylaminopropanol hydrochloride] | – | 8 to 10 | –
CC(=O)CC(C(=O)O)c1ccc(C2CCCCC2)c(Cl)c1 (centres unmarked) [24-(2), 2-(3-chloro-4-cyclohexylphenyl)-3-acetylpropionic acid] | 4.2 (≈ 13.6 µM) | 8 to 10 | –
O=C(O)C(CO)c1ccc(C2CCCCC2)cc1 (centres unmarked) [Example 2, p-cyclohexyltropic acid] | 2.6 (≈ 10.5 µM) | 8 to 10 | –
OCC(CO)c1ccc(C2CCCCC2)c(Cl)c1 [Example 7-(1), 2-(3-chloro-4-cyclohexylphenyl)propane-1,3-diol] | 1.2 (≈ 4.46 µM) | 8 to 10 | –
CC(=O)OCC(COC(C)=O)c1ccc(C2CCCCC2)c(Cl)c1 [Example 8, 1,3-diacetoxy-2-(3-chloro-4-cyclohexylphenyl)propane] | – | 8 to 10 | –
O=C(O)C(CO)c1ccc(C2CCCCC2)c(Cl)c1 (centres unmarked) [Example 9, m-chloro-p-cyclohexyl tropic acid] | 0.26 (≈ 0.919 µM) | 8 to 10 | –
COC(=O)C(CN1CCCCC1)c1ccc(C2CCCCC2)c(Cl)c1 (centres unmarked) [Example 11, methyl 2-(3-chloro-4-cyclohexylphcnyl)-3-piperidinopropionate hydrochloride] | – | 8 to 10 | –
COCC(COC(=O)COc1ccc(Cl)cc1)c1ccc(C2CCCCC2)cc1 (centres unmarked) [Example 20, 1-(4-chlorophenoxyacetoxy)-2-(4-cyclohexylphenyl)-3-methoxypropane] | – | 8 to 10 | –
CNCC(C(=O)O)c1ccc(C2CCCCC2)cc1 (centres unmarked) [Example 22, sodium 2-(4-cyclohexylphenyl)-3-methylaminopropionate monohydrate] | – | 8 to 10 | –
COCC(CO)c1ccc(C2CCCCC2)c(Cl)c1 (centres unmarked) [Example 23, 2-(3-chloro-4-cyclohexylphenyl)-3-methoxypropanol] | – | 8 to 10 | –
CC(=O)Oc1ccccc1C(=O)O [aspirin, reference compound] | – | – | 3.1 (≈ 17.2 µM)
